The CheMixHub ionic liquid set
± gives the uncertainty stated by the source.

Test: xn = mol fraction of the nth substance listed

Compound: CCCC[N+](CCCC)(CCCC)CCCC.O=S(=O)([O-])O + O=C1O[C@H]([C@@H](O)CO)C(O)=C1O + O
- viscosity (298.15 K, 101 kPa, x2 = 0.0003644, x1 = 0.0003601): 0.908 ± 0.009 mPa·s
- viscosity (298.15 K, 101 kPa, x2 = 0.0003645, x1 = 9.006e-05): 0.901 ± 0.009 mPa·s
- viscosity (298.15 K, 101 kPa, x2 = 0.000365, x1 = 0.0001801): 0.903 ± 0.009 mPa·s
- viscosity (298.15 K, 101 kPa, x2 = 0.0003656, x1 = 0.0002701): 0.906 ± 0.009 mPa·s
- viscosity (298.15 K, 101 kPa, x2 = 0.0006576, x1 = 0.0001801): 0.91 ± 0.009 mPa·s
- viscosity (298.15 K, 101 kPa, x2 = 0.0006584, x1 = 9.003e-05): 0.908 ± 0.009 mPa·s
- viscosity (298.15 K, 101 kPa, x2 = 0.0006587, x1 = 0.00027): 0.912 ± 0.009 mPa·s
- viscosity (298.15 K, 101 kPa, x2 = 0.0006597, x1 = 0.00036): 0.915 ± 0.009 mPa·s
- viscosity (298.15 K, 101 kPa, x2 = 0.0009539, x1 = 9.001e-05): 0.913 ± 0.009 mPa·s
- viscosity (298.15 K, 101 kPa, x2 = 0.0009554, x1 = 0.00018): 0.917 ± 0.009 mPa·s
- viscosity (298.15 K, 101 kPa, x2 = 0.0009567, x1 = 0.0003599): 0.921 ± 0.009 mPa·s
- viscosity (298.15 K, 101 kPa, x2 = 0.0009569, x1 = 0.00027): 0.919 ± 0.009 mPa·s
- viscosity (298.15 K, 101 kPa, x2 = 0.001253, x1 = 8.998e-05): 0.92 ± 0.009 mPa·s
- viscosity (298.15 K, 101 kPa, x2 = 0.001255, x1 = 0.0001799): 0.922 ± 0.009 mPa·s
- viscosity (298.15 K, 101 kPa, x2 = 0.001255, x1 = 0.0002699): 0.924 ± 0.009 mPa·s
- viscosity (298.15 K, 101 kPa, x2 = 0.001257, x1 = 0.0003598): 0.928 ± 0.009 mPa·s
- viscosity (298.15 K, 101 kPa, x2 = 0.001553, x1 = 8.995e-05): 0.925 ± 0.009 mPa·s
- viscosity (298.15 K, 101 kPa, x2 = 0.001556, x1 = 0.0001799): 0.929 ± 0.012 mPa·s
- viscosity (298.15 K, 101 kPa, x2 = 0.001558, x1 = 0.0002698): 0.931 ± 0.009 mPa·s
- viscosity (298.15 K, 101 kPa, x2 = 0.001561, x1 = 0.0003597): 0.934 ± 0.009 mPa·s
- viscosity (298.15 K, 101 kPa, x2 = 0.001859, x1 = 8.992e-05): 0.931 ± 0.009 mPa·s
- viscosity (298.15 K, 101 kPa, x2 = 0.00186, x1 = 0.0001798): 0.934 ± 0.009 mPa·s
- viscosity (298.15 K, 101 kPa, x2 = 0.001863, x1 = 0.0002697): 0.938 ± 0.009 mPa·s
- viscosity (298.15 K, 101 kPa, x2 = 0.001866, x1 = 0.0003596): 0.94 ± 0.009 mPa·s
- viscosity (308.15 K, 101 kPa, x2 = 0.0003644, x1 = 0.0003601): 0.734 ± 0.008 mPa·s
- viscosity (308.15 K, 101 kPa, x2 = 0.0003645, x1 = 9.006e-05): 0.726 ± 0.008 mPa·s
- viscosity (308.15 K, 101 kPa, x2 = 0.000365, x1 = 0.0001801): 0.729 ± 0.008 mPa·s
- viscosity (308.15 K, 101 kPa, x2 = 0.0003656, x1 = 0.0002701): 0.731 ± 0.008 mPa·s
- viscosity (308.15 K, 101 kPa, x2 = 0.0006576, x1 = 0.0001801): 0.734 ± 0.008 mPa·s
- viscosity (308.15 K, 101 kPa, x2 = 0.0006584, x1 = 9.003e-05): 0.732 ± 0.008 mPa·s
- viscosity (308.15 K, 101 kPa, x2 = 0.0006587, x1 = 0.00027): 0.737 ± 0.008 mPa·s
- viscosity (308.15 K, 101 kPa, x2 = 0.0006597, x1 = 0.00036): 0.739 ± 0.008 mPa·s
- viscosity (308.15 K, 101 kPa, x2 = 0.0009539, x1 = 9.001e-05): 0.737 ± 0.008 mPa·s
- viscosity (308.15 K, 101 kPa, x2 = 0.0009554, x1 = 0.00018): 0.74 ± 0.008 mPa·s
- viscosity (308.15 K, 101 kPa, x2 = 0.0009567, x1 = 0.0003599): 0.745 ± 0.008 mPa·s
- viscosity (308.15 K, 101 kPa, x2 = 0.0009569, x1 = 0.00027): 0.742 ± 0.008 mPa·s
- viscosity (308.15 K, 101 kPa, x2 = 0.001253, x1 = 8.998e-05): 0.743 ± 0.008 mPa·s
- viscosity (308.15 K, 101 kPa, x2 = 0.001255, x1 = 0.0001799): 0.745 ± 0.008 mPa·s
- viscosity (308.15 K, 101 kPa, x2 = 0.001255, x1 = 0.0002699): 0.748 ± 0.008 mPa·s
- viscosity (308.15 K, 101 kPa, x2 = 0.001257, x1 = 0.0003598): 0.751 ± 0.008 mPa·s
- viscosity (308.15 K, 101 kPa, x2 = 0.001553, x1 = 8.995e-05): 0.747 ± 0.008 mPa·s
- viscosity (308.15 K, 101 kPa, x2 = 0.001556, x1 = 0.0001799): 0.75 ± 0.008 mPa·s
- viscosity (308.15 K, 101 kPa, x2 = 0.001558, x1 = 0.0002698): 0.754 ± 0.008 mPa·s
- viscosity (308.15 K, 101 kPa, x2 = 0.001561, x1 = 0.0003597): 0.757 ± 0.008 mPa·s
- viscosity (308.15 K, 101 kPa, x2 = 0.001859, x1 = 8.992e-05): 0.751 ± 0.008 mPa·s
- viscosity (308.15 K, 101 kPa, x2 = 0.00186, x1 = 0.0001798): 0.755 ± 0.008 mPa·s
- viscosity (308.15 K, 101 kPa, x2 = 0.001863, x1 = 0.0002697): 0.758 ± 0.008 mPa·s
- viscosity (308.15 K, 101 kPa, x2 = 0.001866, x1 = 0.0003596): 0.762 ± 0.008 mPa·s
- viscosity (318.15 K, 101 kPa, x2 = 0.0003644, x1 = 0.0003601): 0.61 ± 0.008 mPa·s
- viscosity (318.15 K, 101 kPa, x2 = 0.0003645, x1 = 9.006e-05): 0.603 ± 0.008 mPa·s
- viscosity (318.15 K, 101 kPa, x2 = 0.000365, x1 = 0.0001801): 0.605 ± 0.008 mPa·s
- viscosity (318.15 K, 101 kPa, x2 = 0.0003656, x1 = 0.0002701): 0.607 ± 0.008 mPa·s
- viscosity (318.15 K, 101 kPa, x2 = 0.0006576, x1 = 0.0001801): 0.608 ± 0.008 mPa·s
- viscosity (318.15 K, 101 kPa, x2 = 0.0006584, x1 = 9.003e-05): 0.606 ± 0.008 mPa·s
- viscosity (318.15 K, 101 kPa, x2 = 0.0006587, x1 = 0.00027): 0.611 ± 0.008 mPa·s
- viscosity (318.15 K, 101 kPa, x2 = 0.0006597, x1 = 0.00036): 0.614 ± 0.008 mPa·s
- viscosity (318.15 K, 101 kPa, x2 = 0.0009539, x1 = 9.001e-05): 0.611 ± 0.008 mPa·s
- viscosity (318.15 K, 101 kPa, x2 = 0.0009554, x1 = 0.00018): 0.612 ± 0.008 mPa·s
- viscosity (318.15 K, 101 kPa, x2 = 0.0009567, x1 = 0.0003599): 0.619 ± 0.008 mPa·s
- viscosity (318.15 K, 101 kPa, x2 = 0.0009569, x1 = 0.00027): 0.617 ± 0.008 mPa·s
- viscosity (318.15 K, 101 kPa, x2 = 0.001253, x1 = 8.998e-05): 0.615 ± 0.008 mPa·s
- viscosity (318.15 K, 101 kPa, x2 = 0.001255, x1 = 0.0001799): 0.616 ± 0.008 mPa·s
- viscosity (318.15 K, 101 kPa, x2 = 0.001255, x1 = 0.0002699): 0.621 ± 0.008 mPa·s
- viscosity (318.15 K, 101 kPa, x2 = 0.001257, x1 = 0.0003598): 0.624 ± 0.008 mPa·s
- viscosity (318.15 K, 101 kPa, x2 = 0.001553, x1 = 8.995e-05): 0.62 ± 0.008 mPa·s
- viscosity (318.15 K, 101 kPa, x2 = 0.001556, x1 = 0.0001799): 0.622 ± 0.011 mPa·s
- viscosity (318.15 K, 101 kPa, x2 = 0.001558, x1 = 0.0002698): 0.626 ± 0.008 mPa·s
- viscosity (318.15 K, 101 kPa, x2 = 0.001561, x1 = 0.0003597): 0.629 ± 0.008 mPa·s
- viscosity (318.15 K, 101 kPa, x2 = 0.001859, x1 = 8.992e-05): 0.625 ± 0.008 mPa·s
- viscosity (318.15 K, 101 kPa, x2 = 0.00186, x1 = 0.0001798): 0.627 ± 0.008 mPa·s
- viscosity (318.15 K, 101 kPa, x2 = 0.001863, x1 = 0.0002697): 0.631 ± 0.008 mPa·s
- viscosity (318.15 K, 101 kPa, x2 = 0.001866, x1 = 0.0003596): 0.634 ± 0.008 mPa·s

Compound: CCOS(=O)(=O)[O-].CC[n+]1ccn(C)c1 + O=C([O-])CC(O)(CC(=O)[O-])C(=O)[O-].[K+].[K+].[K+] + O
- viscosity (293.15 K, 101.3 kPa, x2 = 0, x1 = 0.001795): 1.073 ± 0.071 mPa·s
- viscosity (293.15 K, 101.3 kPa, x2 = 0, x1 = 0.002698): 1.107 ± 0.071 mPa·s
- viscosity (293.15 K, 101.3 kPa, x2 = 0, x1 = 0.003589): 1.136 ± 0.071 mPa·s
- viscosity (298.15 K, 101.3 kPa, x2 = 0, x1 = 0.001795): 0.96 ± 0.071 mPa·s
- viscosity (298.15 K, 101.3 kPa, x2 = 0, x1 = 0.002698): 0.987 ± 0.071 mPa·s
- viscosity (298.15 K, 101.3 kPa, x2 = 0, x1 = 0.003589): 1.016 ± 0.071 mPa·s
- viscosity (303.15 K, 101.3 kPa, x2 = 0, x1 = 0.001795): 0.845 ± 0.071 mPa·s
- viscosity (303.15 K, 101.3 kPa, x2 = 0, x1 = 0.002698): 0.876 ± 0.071 mPa·s
- viscosity (303.15 K, 101.3 kPa, x2 = 0, x1 = 0.003589): 0.899 ± 0.071 mPa·s
- viscosity (308.15 K, 101.3 kPa, x2 = 0, x1 = 0.001795): 0.751 ± 0.071 mPa·s
- viscosity (308.15 K, 101.3 kPa, x2 = 0, x1 = 0.002698): 0.788 ± 0.071 mPa·s
- viscosity (308.15 K, 101.3 kPa, x2 = 0, x1 = 0.003589): 0.811 ± 0.071 mPa·s
- viscosity (313.15 K, 101.3 kPa, x2 = 0, x1 = 0.001795): 0.679 ± 0.071 mPa·s
- viscosity (313.15 K, 101.3 kPa, x2 = 0, x1 = 0.002698): 0.709 ± 0.071 mPa·s
- viscosity (313.15 K, 101.3 kPa, x2 = 0, x1 = 0.003589): 0.727 ± 0.071 mPa·s
